Legend:
[1] = molecular target: CDK2 (Homo sapiens, UniProt P24941); experiment: FSBA covalent modification and protection by competitors, followed by LC/MS; type: binding; details: for Mass Peak (relative percentage), unmodified CDK2 peak: peak 33,971 Da; for Mass Peak (relative percentage), FSBA-modified CDK2 peak: peak 34,404 Da
[2] = molecular target: T1, ALK5 (Homo sapiens, UniProt P36897); experiment: Biotin-FSBA binding and competition detected by Western blot (avidin-HRP); details: biotin-FSBA 20 μM
T1 construct: recombinantly expressed and purified kinase domain of the transforming growth factor (TGF)-β type I receptor; made in house; host or cells: baculovirus expression system
T1 sequence (P36897 205-495 limits assumed): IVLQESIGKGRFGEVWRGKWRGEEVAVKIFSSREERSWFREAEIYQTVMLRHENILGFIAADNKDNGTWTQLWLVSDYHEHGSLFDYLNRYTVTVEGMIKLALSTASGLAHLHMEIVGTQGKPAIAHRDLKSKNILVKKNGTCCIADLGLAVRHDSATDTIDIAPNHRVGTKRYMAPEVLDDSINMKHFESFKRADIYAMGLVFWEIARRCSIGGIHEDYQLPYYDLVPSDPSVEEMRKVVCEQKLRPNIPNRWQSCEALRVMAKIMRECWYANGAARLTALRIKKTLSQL

[3] = molecular target: T2, ALK4 (Homo sapiens, UniProt P36896); experiment: FSBA covalent modification and protection by competitors, followed by LC/MS; type: binding; details: for Mass Peak (relative percentage), unmodified ALK4 peak: peak 35,025 Da; for Mass Peak (relative percentage), FSBA-modified ALK4 peak: peak 35,459 Da
T2 sequence (P36896 24-505): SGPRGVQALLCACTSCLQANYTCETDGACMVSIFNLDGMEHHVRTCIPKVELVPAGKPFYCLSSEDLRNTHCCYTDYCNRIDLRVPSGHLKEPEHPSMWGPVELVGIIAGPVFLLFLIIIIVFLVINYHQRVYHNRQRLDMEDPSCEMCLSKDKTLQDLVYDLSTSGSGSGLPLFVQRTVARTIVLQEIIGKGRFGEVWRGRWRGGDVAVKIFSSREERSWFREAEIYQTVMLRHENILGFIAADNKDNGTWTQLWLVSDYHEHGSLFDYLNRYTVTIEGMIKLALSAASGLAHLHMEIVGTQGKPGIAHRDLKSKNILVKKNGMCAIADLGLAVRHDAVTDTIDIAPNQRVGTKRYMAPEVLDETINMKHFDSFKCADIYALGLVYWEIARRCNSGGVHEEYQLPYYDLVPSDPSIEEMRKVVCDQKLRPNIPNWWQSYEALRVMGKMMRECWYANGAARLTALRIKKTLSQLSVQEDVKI

[4] = molecular target: T3, ALK5 (kinase domain of the TGF-β type I receptor) (Homo sapiens, UniProt P36897); experiment: ^14C-FSBA affinity labeling detected by autoradiography; type: binding; details: ˜20 μM ^14C-FSBA, 1 hour
T3 construct: recombinantly expressed and purified kinase domain of the transforming growth factor (TGF)-β type I receptor; made in house; host or cells: baculovirus expression system
T3 sequence (P36897 205-495 limits assumed): T1 sequence (P36897 205-495 limits assumed)

[5] = molecular target: T1, ALK5; experiment: FSBA covalent modification and protection by competitors, followed by LC/MS; type: binding; details: for Mass Peak (relative percentage), FSBA-modified ALK5 peak: peak 35,405 Da; for Mass Peak (relative percentage), unmodified ALK5 peak: peak 34,972 Da
[6] = tested on: human ROCK1 (hROCK1)
[7] = tested on: proteins in HeLa cell lysate; experiment: Profiling kinases from complex proteome with biotin-FSBA, Western blot; type: binding

Structure (SMILES): Nc1ncnc2c1ncn2[C@@H]1O[C@H](COP(=O)(O)OP(=O)(O)OP(=O)(O)O)[C@@H](O)[C@H]1O [ATP]
- Mass Peak (relative percentage), unmodified CDK2 peak ([1]; FSBA 10 μM plus ATP 1 mM): 33,971 Da (20%)
- Mass Peak (relative percentage), FSBA-modified CDK2 peak ([1]; FSBA 10 μM plus ATP 1 mM): 34,404 Da (80%),
- Mass Peak (relative percentage), unmodified CDK2 peak ([1]; FSBA 10 μM plus ATP 5 mM): 33,971 Da (90%)
- Mass Peak (relative percentage), FSBA-modified CDK2 peak ([1]; FSBA 10 μM plus ATP 5 mM): 34,404 Da (10%),
- Mass Peak (relative percentage), unmodified CDK2 peak ([1]; FSBA 10 μM plus ATP 10 mM): 33,971 Da (100%)
- ATP concentration necessary to block FSBA binding to CDK2 ([1]; FSBA 10 μM, LC/MS): 5 mM
- ATP concentration at which biotin-FSBA/ALK5 bands were no longer visible [2]: ≥ 1.0 mM
- Mass Peak (relative percentage), unmodified ALK4 peak ([3]; FSBA 10 μM plus ATP 50 μM): 35,025 Da (5%)
- Mass Peak (relative percentage), FSBA-modified ALK4 peak ([3]; FSBA 10 μM plus ATP 50 μM): 35,459 Da (95%),
- Mass Peak (relative percentage), unmodified ALK4 peak ([3]; FSBA 10 μM plus ATP 100 μM): 35,025 Da (30%)
- Mass Peak (relative percentage), FSBA-modified ALK4 peak ([3]; FSBA 10 μM plus ATP 100 μM): 35,459 Da (70%),
- Mass Peak (relative percentage), unmodified ALK4 peak ([3]; FSBA 10 μM plus ATP 500 μM): 35,025 Da (100%)
- ATP concentration at which most of the covalent modification of ALK4 by FSBA was inhibited ([3]; FSBA 10 μM, LC/MS): 0.5 mM
- Effect of ATP on ^14C-FSBA labeling of ALK5 by autoradiography ([4]; 1 mM ATP): most of the labeling was blocked
- Effect of ATP on ^14C-FSBA labeling of ALK5 by autoradiography ([4]; 10 mM ATP): autoradiograph did not detect ^14C-FSBA binding
- Mass Peak (relative percentage), FSBA-modified ALK5 peak ([5]; FSBA 10 μM plus ATP 50 μM): 35,405 Da (100%)
- Mass Peak (relative percentage), unmodified ALK5 peak ([5]; FSBA 10 μM plus ATP 100 μM): 34,972 Da (30%)
- Mass Peak (relative percentage), FSBA-modified ALK5 peak ([5]; FSBA 10 μM plus ATP 100 μM): 35,405 Da (70%),
- Mass Peak (relative percentage), unmodified ALK5 peak ([5]; FSBA 10 μM plus ATP 500 μM): 34,972 Da (100%)
- ATP concentration at which most of the covalent modification of ALK5 by FSBA was inhibited ([5]; FSBA 10 μM, LC/MS): 0.5 mM

Structure (SMILES): C[C@@H](N)[C@H]1CC[C@H](C(=O)Nc2ccncc2)CC1 [Y-27632]
- Effect on FSBA labeling of ROCK1 [6]: abrogated FSBA labeling of ROCK1
- Inhibition of FSBA labeling of hROCK1 [6]: inhibits hROCK1 at a 1:1 ratio
- Mode of action on hROCK1 [6]: competitive inhibitor of hROCK1
- Effect on FSBA binding to ALK5 ([5]; 5 μg ALK5, FSBA 40 μM, about 2 hours, LC/MS): had no effect on FSBA binding to ALK5
- Effect on FSBA labeling of ALK5 ([5]; 10 μg ALK5, 10 μM FSBA, 3 hours at room temperature, LC/MS): did not inhibit FSBA labeling of ALK5

Structure (SMILES): CN[C@@H]1C[C@H]2O[C@@](C)([C@@H]1OC)n1c3ccccc3c3c4c(c5c6ccccc6n2c5c31)C(=O)NC4 [staurosporine]
- Effect on biotin-FSBA band intensity in HeLa cell lysate ([7]; 80 μg lysate, 500 μM staurosporin 2 hours, then biotin-FSBA 20 μM 4 hours, Western blot (Example 12)): reduced intensity in selective bands
- Effect on biotin-FSBA band intensity in HeLa cell lysate ([7]; staurosporin 500 μM 2 hours, then biotin-FSBA 4 hours, Western blot (Example 11)): dramatic decrease in band intensity for selected bands
- Effect of staurosporine on FSBA binding to ALK4 [3]: essentially blocked
- Effect of staurosporine on FSBA binding to ALK5 [5]: essentially blocked

From patent US20060234327A1, “Methods for identifying enzyme inhibitors and protein kinases” (priority 2003, published 2006)
